In assay [1] the test system is latent HIV in 89mASG- and R7GEmC-infected single-positive Jurkat T cells. As to the kind of experiment: Reactivation of latent HIV in sorted single-positive (latent) Jurkat T cells, FACS. In kind it is cell-based, HIV-1. The conditions noted are these: for reactivation activity (percent population in the productive gate): 89mASG and R7GEmC single-positive latent populations, 30, 10 and 3 μM; for expression of HIV promoter-dependent reporter: 89mASG and R7GEmC latent Jurkat T cells, 10 ng/ml TNFα, 5 μM prostratin or 2.5 μM SAHA alone.

In assay [2] the test system is latent HIV in sorted GFP-only 89mASG-infected Jurkat cells. As to the kind of experiment: High-throughput imaging screen for latent HIV reactivation (Tocriscreen library). Format: cell-based, HIV-1. Particulars: 24 hr; for red signal (mApple, reactivated virus) versus negative controls: positive control wells, 10 ng/ml TNFα, 5 μM prostratin or 2.5 μM SAHA and combinations; for reactivation of latent HIV in the screen: 30 μM, total red area higher than median+2 SD of negative control wells. An excerpt: (§1) Sorted 89mASG-infected, GFP-only-positive Jurkat cells were used to test the Tocriscreen drug library for latent HIV reactivation (see Methods). (a) Dot plot showing quantification of total blue area (Hoechst 33342 signal, total cell) against total red area (mApple signal, reactivated HIV). Red dots indicate the position of untreated wells (Negative controls); the shaded area indicates the median±2SD of the red/blue area ratio for negative control wells. Green dots indicate positive control wells, treated with 10 ng/ml TNFα, 5 μM prostratin or 2.5 μM SAHA and their combinations. […] Representative FACS plots of sorted single-positive Jurkat T cells for both viruses. The productive gate contains the reactivated cells. […] (c,d) Histogram plot of percent population in the productive gate (grey) for each treatment and percentage of cells in the live gate (light blue) for sorted single-positive Jurkat T cells for 89mASG (c) and R7GEmC (d) reporters. Data shown as mean±SD for three different treatments. For each compound, a grey triangle between the histograms indicates decreasing drug concentration (30, 10 and 3 μM). […] (e) FACS analysis of drug treatments combined with 0.5 μM SAHA, 0.5 μM prostratin and 0.5 ng/ml TNFα. Representative FACS plots of sorted GFP-only-positive Jurkat T cells for 89mASG treated with DMSO (control), SAHA (0.5 μM) alone or with terreic acid (10 μM) and dilazep (30 μM). (f) Histogram plot of percent population of the sorted cells in the productive gate for each treatment at indicated concentrations (μM).

In another assay the test system is HIV RNA expression. Particulars: recent study; cited from earlier work.
Assay [3] has as its system latent provirus in mCherry-only R7GEmC-infected primary CD4+ T cells. Put plainly: Reactivation of sorted mCherry-only (latent) primary CD4+ T cells infected with R7GEmC. Format: cell-based, HIV-1. The conditions noted are these: for response of mCherry-only positive cells to treatment: three pooled donors, 1 μM prostratin, 1 μM SAHA. The procedure:
HEK293T, Jurkat, A301 and SupT1 cell lines were obtained from ATCC. Suspension cells were cultured in RPMI 1640 supplemented with 10% FBS, 100 U/ml penicillin, […] streptomycin and 2 mM L-glutamine (PSG) (37° C., 5% CO2). Peripheral blood from healthy human donors was obtained from the Stanford Blood Center and processed the day of collection. CD4^+ T cells were isolated with RosetteSep Human CD4^+ T-Cell Enrichment Cocktail (Stem Cell Technologies) and cultured in human cell medium (HCM, RPMI, 10% human AB pooled serum, PSG). Resting CD4^+ T cells were activated in U-bottom 96-well TC plates with 25 μl human anti-CD3 and anti-CD28-coated dynabeads/10^6 cells (48 h). Dynabeads were removed by magnetic separation and cells seeded in HCM with 30 IU/ml rhIL-2. Cell lines and activated CD4^+ cells were infected by spinoculation (Lassen et al., PLoS One. 2012; 7(1):e30176, which is hereby incorporated by reference in its entirety) with a virus amount equivalent to 20 ng p24 or as indicated. Viral infection was assessed by fluorescence activated cell sorting (FACS) analysis after 72 h. At 5 days post-infection, cells were sorted to separate negative, single- or double-positive cells. Sorted cell lines were treated after re-expansion for 5-15 days. Cells were seeded in 96-well U plates and treated for 24 h before analysis. […]
The extent to which mCherry-only-positive populations could be reactivated by further stimulation was next evaluated. […]
(a) FACS analysis of activated CD4^+ T cells from two human donors (#1, #2) infected with R7GEmC at indicated virus amounts. (b) Fluorescence microscopy image of infected CD4^+ T cells showing mCherry-positive (latent, red) and GFP-positive (active, green) cells. (c) qPCR quantification of proviral DNA in the sorted populations, using primer-probe combinations for the HIV-1 gag gene and the RNAseP gene for normalization. […] (d) Western blot quantification of HIV gag and cell α-actin in sorted CD4^+ T cell populations from pooled donors. […]

Assay [4] deals with latent HIV in sorted latent-cell populations (GFP-only-positive 89mASG Jurkat T cells). Put plainly: Co-treatment with low levels of SAHA, prostratin or TNFα, FACS. In kind it is cell-based, HIV-1. Particulars: 24 h; for effect on HIV latency in combination with SAHA: 10 μM with low SAHA (0.5 μM); for interaction with prostratin: with low prostratin (0.5 μM).
Description: Thus, it might be of interest to identify compounds that can potentiate HIV reactivation by SAHA or prostratin or TNFα.
as §1

For assay [5], the system named is R7GEmC infection of activated CD4+ T cells. As to the kind of experiment: Infection of activated CD4+ T cells with R7GEmC in the presence of integrase inhibitor (pre-integration latency). Particulars: 30 μM Raltegravir; after 3 days. In kind it is cell-based, HIV-1. The text has this:
HIV latency in vivo is reported to result, in part, from pre-integration latency, whereby unintegrated proviral DNA (after full retrotranscription) is maintained in a stable cytoplasmic form in a quiescent cell, and can respond to cell activation by de novo integration and productive infection. To rule out pre-integration latency, activated CD4^+ T cells were infected with R7GEmC in the presence of the HIV integrase inhibitor raltegravir (FIG. 6A).
(a) FACS analysis of activated CD4^+ T cells from two human donors (#1, #2) infected with R7GEMC alone or with 30 μM Raltegravir (RALTE 30). (b) Analysis of sorted CD4^+ T-cell populations from donors 1 and 2, after 48 h with anti-CD3/CD28-coated Dynabeads (αCD3/28), alone, with 30 μM Raltegravir, or untreated (CTR).

Consider eleven compounds from patent publication US10106818B2, “Dual-color HIV reporter system for the detection of latently-infected cells” (priority 2013, dated 2018).

As for `N#C/C(=C\c1ccc(O)c(O)c1)C(=O)NCCCc1ccccc1` [AG555, α-Cyano-(3,4-dihydroxy)-N-(3-phenylpropyl)cinnamide], in assay [1], the “reactivation activity (percent population in the productive gate)” value is “slight but significant reactivation activity”.
On the same count and under the same terms, for `O=C1C(SCCO)=C(SCCO)C(=O)c2ccccc21` [NSC 95397] the value was “clear artifacts or false positives”.
`O=C(CCCCCCC(=O)Nc1ccccc1)NO` [SAHA, suberoylanilide hydroxamic acid]: the “red signal (mApple, reactivated virus) versus negative controls” value in assay [2] is “notably higher red signal”. For the same compound, the “reactivation of HIV RNA expression in patients” value with HIV RNA expression is given as “can reactivate HIV RNA expression in a subset of patients”. Besides, in assay [3], the “response of mCherry-only positive cells to treatment” value was “A subset of less-bright mCherry-only positive cells also responded”. Moreover, in assay [1], the “expression of HIV promoter-dependent reporter” value is “increased expression of HIV promoter-dependent reporter”.
For `CN1CCc2cccc3c2[C@H]1Cc1ccc(O)c(O)c1-3` [apomorphin, apomorphine], the “reactivation activity (percent population in the productive gate)” value in assay [1] is given as “distinct effects in the two HIV clones”.
On to `COc1cc(C(=O)OCCCN2CCCN(CCCOC(=O)c3cc(OC)c(OC)c(OC)c3)CC2)cc(OC)c1OC` [dilazep], for which, in assay [4], the “effect on HIV latency in combination with SAHA” value was “strongly enhanced the effect of low SAHA concentrations” and the interaction with prostratin result is “synergistic with prostratin”. Moreover, the “reactivation activity (percent population in the productive gate)” value in assay [1] is on record as “slight but significant reactivation activity”.
`O=c1c(-c2ccc(O)cc2)coc2cc(O)cc(O)c12` [genistein]: the “reactivation of latent HIV in the screen” value in assay [2] is “reactivated latent HIV”.
With `CC(=O)O[C@@]12C[C@@H](C)[C@@]3(O)[C@@H](C=C(CO)C[C@]4(O)C(=O)C(C)=C[C@@H]34)[C@@H]1C2(C)C` [prostratin, (1aR,1bS,4aR,7aS,7bR,8R,9aS)-4a,7b-dihydroxy-3-(hydroxymethyl)-1,1,6,8-tetramethyl-5-oxo-1,1a,1b,4,4a,5,7a,7b,8,9-decahydro-9aH-cyclopropa[3,4]benzo[1,2-e]azulen-9a-yl], the “red signal (mApple, reactivated virus) versus negative controls” value in assay [2] is on record as “notably higher red signal”. In assay [3], the “response of mCherry-only positive cells to treatment” value is “A subset of less-bright mCherry-only positive cells also responded”. In addition, in assay [1], the “expression of HIV promoter-dependent reporter” value is reported as “increased expression of HIV promoter-dependent reporter”.
Consider `Cc1nnc(C(=O)NC(C)(C)c2nc(C(=O)NCc3ccc(F)cc3)c(O)c(=O)n2C)o1` [raltegravir], for which, in assay [3] (30 μM Raltegravir with anti-CD3/CD28-coated Dynabeads, 48 h), the “effect on viral reactivation in the mCherry-only-positive population” value was “did not reduce viral reactivation”. The “integration-independent expression of the fluorescent proteins” value in assay [5] is “no integration-independent expression of the fluorescent proteins”.
`Oc1ccc(C=Cc2cc(O)cc(O)c2)cc1` [resveratrol]: the “reactivation of latent HIV in the screen” value in assay [2] was “reactivated latent HIV”.
`CC1=C(O)C(=O)[C@@H]2O[C@@H]2C1=O` [terreic acid, (−)-terreic acid]: in assay [4], the “effect on HIV latency in combination with SAHA” value is “strongly enhanced the effect of low SAHA concentrations” and the interaction with prostratin result is on record as “synergistic with prostratin”. For the same compound, in assay [4] (with low TNFα (0.5 ng/ml)), the “interaction with TNFα” value is “synergistic interaction in most combinations except terreic acid”. Further, in assay [1], the “reactivation activity (percent population in the productive gate)” value is “slight but significant reactivation activity”.
Consider TNF-α, for which, in assay [2], the “red signal (mApple, reactivated virus) versus negative controls” value is reported as “notably higher red signal”. In addition, in assay [1], the “expression of HIV promoter-dependent reporter” value is on record as “increased expression of HIV promoter-dependent reporter”.
